Assays:
[1] = test system: senescent WI38 cells induced by replicative exhaustion (Rep-SC); assay: Cell viability, LD50 in replicative senescent WI-38 cells; assay type: cell-based, human; settings: Table 2
Procedure: (§1) Human WI-38 fibroblasts (WI38 cells, #CCL-75™), human IMR-90 fibroblasts (IMR90 cells, #CCL-186™), human renal epithelial cells (REC cells, #PCS-400-012™) were obtained from ACTT (Manassas, Va., USA). Mouse embryonic fibroblasts (MEF) were isolated from mouse embryos as described^1. All cells were cultured in a complete medium (CM) (Dulbecco's Modified Eagle Medium supplemented with 10% fetal bovine serum [FBS], 100 U/ml penicillin, and 100 μg/ml streptomycin [all from Atlanta Biologicals, Norcross, Ga., and USA]) in a humidified incubator at 37° C. and 5% CO2. Low passages of WI-38 cells (<25), IMR-90 (<25), REC cells (<25) and MEF (<3) were used as non-senescent controls or for induction of senescence to avoid replicative senescence. To induce replicative senescence, WI-38 cells were subcultivated until cell division ceased after about 38 passages or 60 population doublings (FIG. 5)^2. […]
(§2) Flow cytometry: Non-senescent and senescent cells were seeded into wells of 24- or 48-well at about 70% of confluence. […] Viable cells (PI^− cells) were numerated by flow cytometry at a constant flow rate and calculated as a percentage of control cells treated with vehicle using the formula: percentage of control=(Ndrug/NC)×100, where Ndrug and NC represent the absolute number of PI^− viable cells of drug-treated and vehicle-treated cells, respectively. […]

[2] = test system: human IMR-90 fibroblasts; assay: Cell viability, IR-SC vs NC, IMR-90 fibroblasts; assay type: cell-based; settings: increasing concentrations, 72 h
Procedure: as §1
Flow cytometry: Non-senescent and senescent cells were seeded into wells of 24- or 48-well at about 70% of confluence. […] Viable cells (PI^− cells) were numerated by flow cytometry at a constant flow rate and calculated as a percentage of control cells treated with vehicle using the formula: percentage of control=(Ndrug/NC)×100, where Ndrug and NC represent the absolute number of PI^− viable cells of drug-treated and vehicle-treated cells, respectively.

[3] = test system: senescent WI38 cells induced by expression of oncogenic Ras (Ras-SC); assay: Cell viability, LD50 in oncogenic Ras-induced senescent WI-38 cells; assay type: cell-based, human; settings: Table 2
Procedure: as §1, §2

[4] = test system: IR-induced senescent WI-38 cells (SC); assay: Cell viability (PI flow cytometry), LD50 in IR-induced senescent WI-38 cells; assay type: cell-based, human
Procedure: Mouse embryonic fibroblasts (MEF) were isolated from mouse embryos as described^1. All cells were cultured in a complete medium (CM) (Dulbecco's Modified Eagle Medium supplemented with 10% fetal bovine serum [FBS], 100 U/ml penicillin, and 100 μg/ml streptomycin [all from Atlanta Biologicals, Norcross, Ga., and USA]) in a humidified incubator at 37° C. and 5% CO2. Low passages of WI-38 cells (<25), IMR-90 (<25), REC cells (<25) and MEF (<3) were used as non-senescent controls or for induction of senescence to avoid replicative senescence. […] To induce senescence by expression of oncogenic Ras (Ras^V12), WI-38 cells were infected with the retroviruses pBabe-H-Ras or pBabe-puro (control) (Addgene, Cambridge, Mass., UAS)^2, 3. […] Senescent cells were maintained in culture for a few days, changing the culture medium every 3 days until use. For in vitro cell culture experiments, we usually repeated the experiments for at least three times to ensure the reproducibility of the data. In addition, the repeats of the experiments for three times will allow us to obtain 3 independent observations for statistical analysis.
Flow cytometry: Non-senescent and senescent cells were seeded into wells of 24- or 48-well at about 70% of confluence. […] Both quiescent non-senescent cells and permanently growth arrested senescent cells were treated with vehicle (0.1% DMSO or PBS) or increasing concentrations of the compounds listed in Table 1 for various durations. […] After incubated with propidium iodide (PI 100 ng/ml) in PBS at room temperature for 1 min, cells were centrifuged at 1200 rpm for 6 min and then resuspended in PBS with 2% of FBS for analysis by a BD LSR II flow cytometer (BD Biosciences, San Jose, Calif., USA). Viable cells (PI^− cells) were numerated by flow cytometry at a constant flow rate and calculated as a percentage of control cells treated with vehicle using the formula: percentage of control=(Ndrug/NC)×100, where Ndrug and NC represent the absolute number of PI^− viable cells of drug-treated and vehicle-treated cells, respectively.
MTT (3-[4,5-dimethylthiazol-2-yl]-2,5 diphenyl tetrazolium bromide) assay: Cells were harvested, washed and resuspended in CM and added to wells of 24- or 48-well plates as described above. […] After 4 h at 37° C., the formazan was solubilized by lysing the cells with 300 μl of DMSO. Absorbance of formazan was measured at 595 nm using a Microplate Reader (BioTek, Winooski, Vt., USA). Cell viability was calculated in the method as previously described^4.
Trypan blue exclusion assay: Cells were harvested, washed and resuspended in CM and added to wells of a 6-well plate as described above. […] Living cells stained negative for trypan blue and were counted under light microscopy.
Briefly, Probit (set as y) was determined by looking up their correspondence to the % responded in Finney's table. The log of the compound concentrations was used as x. By fitting a line of regression, we produce the formula y=ax+b.

## CC1(C)CCC(c2ccc(Cl)cc2)=C(CN2CCN(c3ccc(C(=O)NS(=O)(=O)c4ccc(N[C@H](CCN5CCOCC5)CSc5ccccc5)c(S(=O)(=O)C(F)(F)F)c4)cc3)CC2)C1 [ABT263, navitoclax]
[1]
  LD50: 1.45 µM
[2]
  viable cells, IR-SC vs NC: kills IR-induced senescent cells (IR-SC) but not non-senescent cells (NC)
[3]
  LD50: 0.62 µM
[4]; Homo sapiens, WI-38 fibroblasts, IR-induced senescent, LD50 by Probit Analysis, read-out: LD50 (μM) for senescent cells (SC)
  IC50: 0.61 µM
[4]; Table 2, IR-SC WI38 cells
  LD50: 0.61 µM
[4]; senescent WI-38, increasing concentrations, 72 h
  viable cells by MTT assay and trypan blue exclusion test: can dose-dependently kill senescent WI-38 fibroblasts
[4]; ~24 h, 1.25 μM ABT263, IR-SC WI-38
  SCs killed: 70-80%

From patent US11331328B2, “Compositions and methods for inhibiting antiapoptotic Bcl-2 proteins as anti-aging agents” (priority 2014, dated 2022)
